These are literature values, as cited in US20070197568A1 (priority 2005, published 2007).

The conditions of this series: animals, at doses that inhibit tumor growth.

Regarding `O=C(CCCCCCC(=O)Nc1ccccc1)NO` [SAHA, N-Hydroxy-N′-phenyl octanediamide], the “toxicity to the animal” value is on record as “no toxicity”.
